EP0052437A1, “Antibacterial compounds, processes for their preparation and compositions containing them” (BEECHAM GROUP PLC, priority 1980, dated 1982)
≈ marks a conversion by molar mass, not a printed value.

Key:
Assay type in all cases: cell-based
[1] = system: M. suipneumoniae HK(2); assay: Anti-mycoplasmal in vitro MIC; conditions: Mesomycoplasma hyopneumoniae, 144 h, Friis broth solidified with 0.9% agarose, 6 days incubation at 37°C
[2] = system: M. suipneumoniae Str. 11; assay: Anti-mycoplasmal in vitro MIC; conditions: Mesomycoplasma hyopneumoniae, 144 h, Friis broth solidified with 0.9% agarose, 6 days incubation at 37°C
[3] = system: M. suipneumoniae J2206/183b; assay: Anti-mycoplasmal in vitro MIC; conditions: Mesomycoplasma hyopneumoniae, 144 h, Friis broth solidified with 0.9% agarose, 6 days incubation at 37°C
[4] = system: M. suipneumoniae MS 16; assay: Anti-mycoplasmal in vitro MIC; conditions: Mesomycoplasma hyopneumoniae, MS16, 144 h, Friis broth solidified with 0.9% agarose, 6 days incubation at 37°C
[5] = system: M. suipneumoniae LABER; assay: Anti-mycoplasmal in vitro MIC; conditions: Mesomycoplasma hyopneumoniae, 144 h, Friis broth solidified with 0.9% agarose, 6 days incubation at 37°C
[6] = system: M. suipneumoniae UCD 1; assay: Anti-mycoplasmal in vitro MIC; conditions: Mesomycoplasma hyopneumoniae, UCD1, 144 h, Friis broth solidified with 0.9% agarose, 6 days incubation at 37°C
[7] = system: M. suipneumoniae NCTC 10110; assay: Anti-mycoplasmal in vitro MIC; conditions: Mesomycoplasma hyopneumoniae, NCTC10110, 144 h, Friis broth solidified with 0.9% agarose, 6 days incubation at 37°C
[8] = system: M. hyorhinis ATCC 23234; assay: Anti-mycoplasmal in vitro MIC; conditions: Mesomycoplasma hyorhinis, ATCC23234, 144 h, Friis broth solidified with 0.9% agarose, 6 days incubation at 37°C
[9] = system: M. hyorhinis ATCC 25021; assay: Anti-mycoplasmal in vitro MIC; conditions: Mesomycoplasma hyorhinis, ATCC25021, 144 h, Friis broth solidified with 0.9% agarose, 6 days incubation at 37°C
[10] = system: M. hyosynoviae ATCC 25591; assay: Anti-mycoplasmal in vitro MIC; conditions: 144 h, Friis broth solidified with 0.9% agarose, 6 days incubation at 37°C
[11] = system: M. dispar NCTC 10125; assay: Anti-mycoplasmal in vitro MIC; conditions: 144 h, Friis broth solidified with 0.9% agarose, 6 days incubation at 37°C
[12] = system: M. gallisepticum S6; assay: Anti-mycoplasmal in vitro MIC; conditions: Mycoplasmoides gallisepticum, 144 h, Friis broth solidified with 0.9% agarose, 6 days incubation at 37°C
[13] = system: M. pneumoniae ATCC 15492; assay: Anti-mycoplasmal in vitro MIC; conditions: Mycoplasmoides pneumoniae, ATCC15492, 144 h, Friis broth solidified with 0.9% agarose, 6 days incubation at 37°C
[14] = system: Bord. bronchiseptica BO8; assay: Veterinary bacteria MIC; conditions: Bordetella bronchiseptica, Diagnostic Sensitivity Test Agar, 18 hours at 37°C
Protocol: (§1) The values were determined using a two fold serial dilutions.in Diagnostic Sensitivity Test Agar with an inoculum of 10^4 organisms and incubation for 18 hours at 37°C.

[15] = system: Erysipelothrix rhusiopathiae NCTC 8163; assay: Veterinary bacteria MIC; conditions: NCTC8163, Diagnostic Sensitivity Test Agar, 18 hours at 37°C
Protocol: as §1

[16] = system: Past. multocida PA2; assay: Veterinary bacteria MIC; conditions: Pasteurella multocida, Diagnostic Sensitivity Test Agar, 18 hours at 37°C
Protocol: as §1

[17] = system: S. dublin S7; assay: Veterinary bacteria MIC; conditions: Salmonella enterica, Diagnostic Sensitivity Test Agar, 18 hours at 37°C
Protocol: as §1

[18] = system: S. typhimurium S18; assay: Veterinary bacteria MIC; conditions: Salmonella enterica, Diagnostic Sensitivity Test Agar, 18 hours at 37°C
Protocol: as §1

[19] = system: Strep. agalactiae SPA1; assay: Veterinary bacteria MIC; conditions: Streptococcus agalactiae, Diagnostic Sensitivity Test Agar, 18 hours at 37°C
Protocol: as §1

[20] = system: Strep. dysgalactiae SPD1; assay: Veterinary bacteria MIC; conditions: Streptococcus dysgalactiae, Diagnostic Sensitivity Test Agar, 18 hours at 37°C
Protocol: as §1

[21] = system: Strep. uberis SPU1; assay: Veterinary bacteria MIC; conditions: Streptococcus uberis, Diagnostic Sensitivity Test Agar, 18 hours at 37°C
Protocol: as §1

[22] = system: Bacillus subtilis 6633; assay: Human bacteria MIC; conditions: nutrient agar with 5% chocolated horse blood, 18 hours at 37°C
Protocol: (§2) The values were determined by serial dilutions in nutrient agar with 5% chocolated horse blood after incubations for 18 hours at 37 °C.

[23] = system: Corynebacterium xerosis 9755; assay: Human bacteria MIC; conditions: nutrient agar with 5% chocolated horse blood, 18 hours at 37°C
Protocol: as §2

[24] = system: E. Coli NCTC 10418; assay: Human bacteria MIC; conditions: Escherichia coli, NCTC10418, nutrient agar with 5% chocolated horse blood, 18 hours at 37°C
Protocol: as §2

[25] = system: E. coli ESS; assay: Human bacteria MIC; conditions: Escherichia coli, nutrient agar with 5% chocolated horse blood, 18 hours at 37°C
Protocol: as §2

[26] = system: K. aerogenes A; assay: Human bacteria MIC; conditions: Klebsiella aerogenes, nutrient agar with 5% chocolated horse blood, 18 hours at 37°C
Protocol: as §2

[27] = system: Neisseria catarrhalis 1502; assay: Human bacteria MIC; conditions: nutrient agar with 5% chocolated horse blood, 18 hours at 37°C
Protocol: as §2

[28] = system: P. mirabilis 889; assay: Human bacteria MIC; conditions: Proteus mirabilis, nutrient agar with 5% chocolated horse blood, 18 hours at 37°C
Protocol: as §2

[29] = system: Pasteurella multocida 1633; assay: Human bacteria MIC; conditions: nutrient agar with 5% chocolated horse blood, 18 hours at 37°C
Protocol: as §2

[30] = system: Ps. aeruginosa NCTC 10662; assay: Human bacteria MIC; conditions: Pseudomonas aeruginosa, NCTC10662, nutrient agar with 5% chocolated horse blood, 18 hours at 37°C
Protocol: as §2

[31] = system: Sarcina lutea 8340; assay: Human bacteria MIC; conditions: Micrococcus luteus, nutrient agar with 5% chocolated horse blood, 18 hours at 37°C
Protocol: as §2

[32] = system: Staph. aureus Oxford; assay: Human bacteria MIC; conditions: Staphylococcus aureus, nutrient agar with 5% chocolated horse blood, 18 hours at 37°C
Protocol: as §2

[33] = system: Staph. aureus Russell; assay: Human bacteria MIC; conditions: Staphylococcus aureus, nutrient agar with 5% chocolated horse blood, 18 hours at 37°C
Protocol: as §2

[34] = system: Staph. aureus W2827; assay: Human bacteria MIC; conditions: Staphylococcus aureus, nutrient agar with 5% chocolated horse blood, 18 hours at 37°C
Protocol: as §2

[35] = system: Strep. 641848-C; assay: Human bacteria MIC; conditions: nutrient agar with 5% chocolated horse blood, 18 hours at 37°C
Protocol: as §2

[36] = system: Strep. faecalis I; assay: Human bacteria MIC; conditions: Enterococcus faecalis, nutrient agar with 5% chocolated horse blood, 18 hours at 37°C
Protocol: as §2

Structure (SMILES)	MIC [1] [µg/mL]	MIC [2] [µg/mL]	MIC [3] [µg/mL]	MIC [4] [µg/mL]	MIC [5] [µg/mL]	MIC [6] [µg/mL]	MIC [7] [µg/mL]	MIC [8] [µg/mL]	MIC [9] [µg/mL]	MIC [10] [µg/mL]	MIC [11] [µg/mL]	MIC [12] [µg/mL]	MIC [13] [µg/mL]	MIC [14] [µg/mL]	MIC [15] [µg/mL]	MIC [16] [µg/mL]	MIC [17] [µg/mL]	MIC [18] [µg/mL]	MIC [19] [µg/mL]	MIC [20] [µg/mL]	other results
C/C(=C\C(=O)OCc1ccccc1C#N)CC1OCC(CC2OC2C(C)C(C)O)C(O)C1O (stereo not drawn) [Example 1, o-Cyanobenzyl monate A]	1 (≈ 2.18 µM)	1 (≈ 2.18 µM)	1 (≈ 2.18 µM)	0.5 (≈ 1.09 µM)	0.5 (≈ 1.09 µM)	1 (≈ 2.18 µM)	1 (≈ 2.18 µM)	0.5 (≈ 1.09 µM)	0.5 (≈ 1.09 µM)	≤ 0.01	0.25 (≈ 0.544 µM)	2.5 (≈ 5.44 µM)	2.5 (≈ 5.44 µM)	> 80	80 (≈ 174 µM)	0.156 (≈ 0.339 µM)	> 80	> 80	2.5 (≈ 5.44 µM)	0.312 (≈ 0.679 µM)	MIC [21]: 0.156 µg/mL (≈ 0.339 µM); MIC [22]: 2.5 µg/mL (≈ 5.44 µM); MIC [23]: > 100 µg/mL; MIC [24]: > 100 µg/mL; MIC [25]: 1 µg/mL (≈ 2.18 µM); MIC [26]: > 100 µg/mL; MIC [27]: 0.5 µg/mL (≈ 1.09 µM); MIC [28]: > 100 µg/mL; MIC [29]: 1 µg/mL (≈ 2.18 µM); MIC [30]: > 100 µg/mL; MIC [31]: > 100 µg/mL; MIC [32]: 1 µg/mL (≈ 2.18 µM); MIC [33]: 1 µg/mL (≈ 2.18 µM); MIC [34]: 2.5 µg/mL (≈ 5.44 µM); MIC [35]: 1 µg/mL (≈ 2.18 µM); MIC [36]: > 100 µg/mL
C/C(=C\C(=O)OCc1cccc(C#N)c1)CC1OCC(CC2OC2C(C)C(C)O)C(O)C1O (stereo not drawn) [Example 2, m-Cyanobenzyl monate A]	0.1 (≈ 0.218 µM)	0.05 (≈ 0.109 µM)	0.05 (≈ 0.109 µM)	0.05 (≈ 0.109 µM)	0.05 (≈ 0.109 µM)	0.1 (≈ 0.218 µM)	0.05 (≈ 0.109 µM)	0.025 (≈ 0.0544 µM)	0.025 (≈ 0.0544 µM)	0.05 (≈ 0.109 µM)	0.025 (≈ 0.0544 µM)	2.5 (≈ 5.44 µM)	0.5 (≈ 1.09 µM)	20 (≈ 43.5 µM)	20 (≈ 43.5 µM)	0.156 (≈ 0.339 µM)	80 (≈ 174 µM)	80 (≈ 174 µM)	0.625 (≈ 1.36 µM)	0.312 (≈ 0.679 µM)	MIC [21]: 0.312 µg/mL (≈ 0.679 µM); MIC [22]: 0.5 µg/mL (≈ 1.09 µM); MIC [23]: > 100 µg/mL; MIC [24]: 50 µg/mL (≈ 109 µM); MIC [25]: 0.5 µg/mL (≈ 1.09 µM); MIC [26]: 100 µg/mL (≈ 218 µM); MIC [27]: 0.25 µg/mL (≈ 0.544 µM); MIC [28]: 100 µg/mL (≈ 218 µM); MIC [29]: 1 µg/mL (≈ 2.18 µM); MIC [30]: > 100 µg/mL; MIC [31]: > 100 µg/mL; MIC [32]: 1 µg/mL (≈ 2.18 µM); MIC [33]: 2.5 µg/mL (≈ 5.44 µM); MIC [34]: 1 µg/mL (≈ 2.18 µM); MIC [35]: 1 µg/mL (≈ 2.18 µM); MIC [36]: 100 µg/mL (≈ 218 µM)
